Data on 10 molecules can be found in patent US20230234969A1, “N-LINKED MACROCYCLIC 7-(PYRAZOL-5-YL)-INDOLE DERIVATIVES AS INHIBIORS OF MCL-1” (Janssen Pharmaceutica NV, priority 2020, published 2023).

Experiment [1] deals with MOLP-8 human multiple myeloma cell line. Nature of the experiment: Caspase-Glo 3/7 assay in MOLP-8 cells (apoptosis induction). The settings on record: MOLP8 cells, 2 hours incubation at 37° C.; averaged values over all runs on all batches. The class given is cell-based. The text has this: MCL-1 is a regulator of apoptosis and is highly over-expressed in tumor cells that escape cell death. The assay evaluates the cellular potency of small-molecule compounds targeting regulators of the apoptosis pathway, primarily MCL-1, Bfl-1, Bcl-2, and other proteins of the Bcl-2 family. Protein-protein inhibitors disrupting the interaction of anti-apoptotic regulators with BH3-domain proteins initiate apoptosis.
The Caspase-Glo® 3/7 Assay is a luminescent assay that measures caspase-3 and -7 activities in purified enzyme preparations or cultures of adherent or suspension cells. The assay provides a proluminescent caspase-3/7 substrate, which contains the tetrapeptide sequence DEVD. This substrate is cleaved to release aminoluciferin, a substrate of luciferase used in the production of light. Addition of the single Caspase-Glo® 3/7 Reagent in an “add-mix-measure” format results in cell lysis, followed by caspase cleavage of the substrate and generation of a “glow-type” luminescent signal.
This assay uses the MOLP-8 human multiple myeloma cell line, which is sensitive to MCL-1 inhibition.
Cell cultures were maintained between 0.2 and 2.0×10^6 cells/mL. The cells were harvested by collection in 50 mL conical tubes. The cells were then pelleted at 500 g for 5 mins before removing supernatant and resuspension in fresh pre-warmed culture medium. The cells were counted and diluted as needed.
The assay reagent was prepared by transferring the buffer solution to the substrate vial and mixing. The solution may be stored for up to 1 week at 4° C. with negligible loss of signal.
Compounds were delivered in assay-ready plates (Proxiplate) and stored at −20° C. Assays always include 1 reference compound plate containing reference compounds. The plates were spotted with 40 nL of compounds (0.5% DMSO final in cells; serial dilution; 30 μM highest conc. 1/3 dilution, 10 doses, duplicates). The compounds were used at room temperature and 4 μL of pre-warmed media was added to all wells except column 2 and 23. The negative control was prepared by adding 1% DMSO in media. The positive control was prepared by adding the appropriate positive control compound in final concentration of 60 μM in media. The plate was prepared by adding 4 μL negative control to column 23, 4 μL positive control to column 2 and 4 μL cell suspension to all wells in the plate. The plate with cells was then incubated at 37° C. for 2 hours. The assay signal reagent is the Caspase-Glo solution described above, and 8 μL was added to all wells. The plates were then sealed and measured after 30 minutes.
The activity of a test compound was calculated as percent change in apoptosis induction as follows:
[formula] % Effect (AC50)=100−((sample−LC)/(HC−LC))*100
% Control=(sample/HC)*100
% Control min=(sample−LC)/(HC−LC)*100

Experiment [2] deals with Myeloid Cell Leukemia 1 (Mcl-1) (Homo sapiens, UniProt Q07820). Briefly: Terbium labeled Mcl-1 HTRF binding assay, displacement of Cy5-labeled BIM BH3 peptide. The settings on record: 25 pM Tb-Mcl-1, 8 nM Cy5 Bim peptide, Ki=IC50/(1+[L]/Kd), [L]=8 nM, Kd=10 nM, 60 min room temperature, read-out: Tb-MCLl Ki. The protocol: Terbium labeled Myeloid Cell Leukemia 1 (Mcl-1) homogeneous time-resolved fluorescence (HTRF) binding assay utilizing the BIM BH3 peptide (H2N-(C/Cy5Mal) WIAQELRRIGDEFN-OH) as the binding partner for Mcl-1.
Chain of Myeloid Cell Leukemia 1 (Mcl-1) (Q07820 whole entry, the tested form may be a part): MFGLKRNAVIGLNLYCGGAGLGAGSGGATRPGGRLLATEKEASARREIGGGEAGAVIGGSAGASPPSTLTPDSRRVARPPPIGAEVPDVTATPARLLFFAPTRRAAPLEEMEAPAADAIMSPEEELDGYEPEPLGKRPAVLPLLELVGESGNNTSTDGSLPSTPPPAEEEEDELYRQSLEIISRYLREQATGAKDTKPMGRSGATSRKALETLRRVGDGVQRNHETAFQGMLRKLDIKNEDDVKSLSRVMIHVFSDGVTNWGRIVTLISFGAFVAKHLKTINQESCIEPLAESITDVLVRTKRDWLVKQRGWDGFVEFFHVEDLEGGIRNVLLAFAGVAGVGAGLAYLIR
This assay evaluated inhibition of the BH3 domain: Mcl-1 interaction by measuring the displacement of Cy5-labeled BIM BH3 peptide (H2N—(C/Cy5Mal) WIAQELRRIGDEFN-OH) in the HTRF assay format.
The following assay and stock buffers were prepared for use in the assay: (a) Stock buffer: 10 mM Tris-HCl, pH=7.5+150 mM NaCl, filtered, sterilized, and stored at 4° C.; and (b) 1×assay buffer, where the following ingredients were added fresh to stock buffer: 2 mM dithiothreitol (DTT), 0.0025% Tween-20, 0.1 mg/mL bovine serum albumin (BSA). The 1×Tb-Mcl-1+Cy5 Bim peptide solution was prepared by diluting the protein stock solution using the 1×assay buffer (b) to 25 pM Tb-Mcl-1 and 8 nM Cy5 Bim peptide.
Using the Acoustic ECHO, 100 nL of 100×test compound(s) were dispensed into individual wells of a white 384-well Perkin Elmer Proxiplate, for a final compound concentration of 1× and final DMSO concentration of 1%. Inhibitor control and neutral control (NC, 100 nL of 100% DMSO) were stamped into columns 23 and 24 of assay plate, respectively. Into each well of the plate was then dispensed 10 μL of the 1×Tb-Mcl-1+Cy5 Bim peptide solution. The plate was centrifuged with a cover plate at 1000 rpm for 1 minute, then incubated for 60 minutes at room temperature with plates covered. The TR-FRET signal was read on an BMG PHERAStar FSX MicroPlate Reader at room temperature using the HTRF optic module (HTRF: excitation: 337 nm, light source: laser, emission A: 665 nm, emission B: 620 nm, integration start: 60 μs, integration time: 400 μs).
The BMG PHERAStar FSX MicroPlate Reader was used to measure fluorescence intensity at two emission wavelengths—665 nm and 620 nm—and report relative fluorescence units (RFU) for both emissions, as well as a ratio of the emissions (665 nm/620 nm)*10,000. The RFU values were normalized to percent inhibition as follows:
% inhibition=(((NC−IC)−(compound−IC))/(NC−IC))*100
where IC (inhibitor control, low signal)=mean signal of 1×Tb-MCl-1+Cy5 Bim peptide+inhibitor control or 100% inhibition of Mcl-1; NC (neutral control, high signal)=mean signal 1×Tb-MCl-1+Cy5 Bim peptide with DMSO only or 0% inhibition
An 11-point dose response curve was generated to determine IC50 values (using GenData) based on the following equation:
Y=Bottom+(Top−Bottom)/(1+10^((log IC50−X)*HillSlope))
where Y=% inhibition in the presence of X inhibitor concentration; Top=100% inhibition derived from the IC (mean signal of Mcl-1+inhibitor control); Bottom=0% inhibition derived from the NC (mean signal of Mcl-1+DMSO); Hillslope=Hill coefficient; and IC50=concentration of compound with 50% inhibition in relation to top/neutral control (NC).
In this assay [L]=8 nM and Kd=10 nM
Representative compounds of the present invention were tested according to the procedure as described above, with results as listed in the Table below (n.d. means not determined).

In general, AC50 refers to the concentration giving half of the maximal activity seen. A low value points to activity at low concentration. In general, Ki refers to the equilibrium dissociation constant of an inhibitor or competing ligand from its target. In turn, `CCn1c(C(=O)O)c2c3ccc(Cl)c(c31)-c1c(C)c(C)nn1CCCc1cc(n(CCN(C)C)n1)CCc1cc(c3ccc(F)cc3c1)OCCC2` (single isomer, unassigned) [Compound 8] registered an AC50 in experiment [1] of 1560 nM. In addition, the Ki in experiment [2] came out at 8.06 nM.

Consider `COCCOCCn1c(C(=O)O)c2c3ccc(Cl)c(c31)-c1c(C)c(C)nn1CCCc1cc(n(C)n1)CCc1cc(c3ccc(F)cc3c1)OCCC2` (single isomer, unassigned) [Compound 6], for which the AC50 in experiment [1] was 1930 nM. Moreover, the inhibition constant Ki in experiment [2] was found to be 1.93 nM.

`CCn1c(C(=O)O)c2c3ccc(Cl)c(c31)-c1c(C)c(C)nn1CCCc1cc(n(CCOC)n1)CCc1cc(c3ccc(F)cc3c1)OCCC2` (single isomer, unassigned) [Compound 9] had an AC50 in experiment [1] of 53 nM. Moreover, the Ki in experiment [2] stood at 0.061 nM.

Take `Cc1nn2c(c1C)-c1c(Cl)ccc3c(c(C(=O)O)n(C)c13)CCCOc1cc(cc3ccccc13)SCc1cc(nn1C)CCC2` (single isomer, unassigned) [Compound 1]: the AC50 in experiment [1] worked out at 67 nM. In addition, the Ki in experiment [2] came out at 0.09 nM.

In the case of `CCn1c(C(=O)O)c2c3ccc(Cl)c(c31)-c1c(C)c(C)nn1CCCc1cc(n(C)n1)CCc1cc(c3ccc(F)cc3c1)OCCC2` (single isomer, unassigned) [Compound 3], the activity in experiment [1] was half-maximal at 36 nM (AC50). Further, the Ki in experiment [2] stood at 0.043 nM.

`CCn1c(C(=O)O)c2c3ccc(Cl)c(c31)-c1c(C)c(C)nn1CCCc1cc(n(CCOC)n1)CCc1cc(c3ccc(F)cc3c1)OCCC2` (single isomer, unassigned) [Compound 10] gave an AC50 in experiment [1] of 3060 nM. For the same molecule, in experiment [2], the Ki amounted to 3.06 nM.

`COCCOCCn1c(C(=O)O)c2c3ccc(Cl)c(c31)-c1c(C)c(C)nn1CCCc1cc(n(C)n1)CCc1cc(c3ccc(F)cc3c1)OCCC2` (single isomer, unassigned) [Compound 5] showed an AC50 in experiment [1] of 27 nM. The Ki in experiment [2] is 0.027 nM.

As for `CCn1c(C(=O)O)c2c3ccc(Cl)c(c31)-c1c(C)c(C)nn1CCCc1cc(n(CCN(C)C)n1)CCc1cc(c3ccc(F)cc3c1)OCCC2` (single isomer, unassigned) [Compound 7], the activity in experiment [1] was half-maximal at 16 nM (AC50). In experiment [2], the inhibition constant Ki worked out at 0.052 nM.

Consider `CCn1c(C(=O)O)c2c3ccc(Cl)c(c31)-c1c(C)c(C)nn1CCCc1cc(n(C)n1)CCc1cc(c3ccc(F)cc3c1)OCCC2` (single isomer, unassigned) [Compound 4], for which the AC50 in experiment [1] was determined as 13100 nM. In experiment [2], the Ki amounted to 33.7 nM.

In turn, `Cc1nn2c(c1C)-c1c(Cl)ccc3c(c(C(=O)O)n(C)c13)CCCOc1cc(cc3ccccc13)SCc1cc(nn1C)CCC2` (single isomer, unassigned) [Compound 2] yielded an AC50 in experiment [1] of 2710 nM. Further, the Ki in experiment [2] stood at 3.21 nM.
